In article PMC7733455, “A novel multistage antiplasmodial inhibitor targeting Plasmodium falciparum histone deacetylase 1” (Cell Discovery, 2020):

What was measured:
[1] = system: P. falciparum NF54 stage II gametocytes; experiment: In vitro gametocyte inhibition assay, stage II; assay type: cell-based, Plasmodium falciparum; settings: NF54 luciferase line, 48 h exposure
Protocol: To test the activities of JX21108 against different gametocyte stages, the P. falciparum producer NF54^p230p-luc was utilized, as described previously. […] Luciferase intensity based on luciferase expression was detected as described above. The EC50 was calculated by GraphPad Prism. DMSO (1%) was used as a negative control.

3D7^HDAC1-TY1 = experiment: Sensitivity of transgenic parasites to JX21108, 3D7^HDAC1-TY1; assay type: cell-based; settings: Plasmodium falciparum, 3D7, 4 h, read-out: EC50 for 3D7^HDAC1-TY1
Protocol: (§1) Highly synchronized schizont-stage parasites were prepared and treated as described above, with adjustments. […] After washing, parasites were cultured in new CM for another 68 h. Parasite growth was monitored by SYBR Green I staining, as described above. The EC50 was calculated by GraphPad Prism.

P. falciparum GB4 = experiment: 3-day SYBR Green I GIA, strain GB4; assay type: cell-based; settings: Plasmodium falciparum; GB4 resistant to chloroquine; read-out: Resistant isolates EC50, GB4
Protocol: A 3-day SYBR Green I inhibition EC50 assay was performed as described previously. Briefly, highly synchronized ring-stage parasites by 5% sorbitol (1% parasitemia and 2% hematocrit) were incubated in a 96-well plate with compounds in a total volume of 200 μL. […] The parasites were cultured for 72 h before SYBR Green I staining as described above. The EC50 was calculated by GraphPad Prism. DHA was used as a positive control, and the final concentration of DMSO was 1%.

[2] = Pharmacokinetic assay in mice; assay type: in vivo, BALB/c mice; settings: 5 mg/kg i.p.
Protocol: Five female BALB/c mice (6–8 weeks, 18–19 g) per group were purchased from JH Laboratory Animal Co., Ltd. All mice were raised at controlled temperature and humidity and had free access to food and water. Compounds were dissolved in 5% DMSO and diluted with 20% aqueous 2-hydroxypropyl-β-cyclodextrin solution to a stock concentration of 0.5 mg/mL. Each mouse was i.p. injected with the compound solution at a dose of 5 mg/kg. Blood samples collected by anticoagulant (K2EDTA)-containing tubes at 0.25, 0.5, 1, 2, 4, 8, and 24 h after injection were centrifuged at 2000× g at 4 °C for 5 min to obtain plasma. LC-MS/MS analysis of samples was carried out by an ACQUITY UPLC HSS T3 1.8-μm column. The mobile phase was a mixture of phase A (0.1% formic acid in water) and phase B (0.1% formic acid in acetonitrile), which ran in gradient mode at a flow rate of 0.6 mL/min at 60 °C. Mass spectra were obtained on an API6500 triple quadrupole equipped with an ESI source. Propranolol was used as an internal standard. The plasma concentrations of the compounds were analyzed, and the pharmacokinetic parameters were calculated via WinNonlin.

3D7^HDA1-glmS = experiment: Sensitivity of transgenic parasites to JX21108, 3D7^HDA1-glmS; assay type: cell-based; settings: Plasmodium falciparum, 3D7, 4 h, read-out: EC50 for 3D7^HDA1-glmS
Protocol: as §1

hHDAC2 = molecular target: T1, hHDAC2 (Homo sapiens, UniProt Q92769); experiment: Human HDAC inhibition assay, hHDAC2; assay type: biochemical; settings: performed only once; read-out: Inhibitory Activity IC50, hHDAC2
T1 construct: purchased BPS Bioscience 5002
Protocol: SAHA and suramin were used as positive controls. The tested compounds were dissolved into 20 mM stock in 100% DMSO. […] Ten microliters of trypsin and Ac-peptide substrate/Tris buffer solution were added to start the reaction, followed by a 1-h incubation at room temperature for HDACs 1–3 and 6. Ten microliters of Ac-peptide substrate/Tris buffer solution was added to start the reaction, followed by a 4-h incubation at room temperature and a further 2-h incubation with trypsin solution for HDAC8 and Sirt 2. […] This experiment was performed only once.

[3] = Liver microsome metabolism assay, human; assay type: in vitro ADME
Protocol: Liver microsomes (0.5 mg/mL) were purchased from Corning. Ketanserin was selected as a positive control. The tested compounds were first dissolved in DMSO to a concentration of 10 mM and then diluted to 0.5 mM with acetonitrile. Liver microsome buffer was used to dilute the compounds to a working concentration of 1.5 µM, 30 µL of which was mixed with 15 µL of 6 mM NADPH at 37 °C. At 0, 5, 15, 30, and 45 min after incubation, 135 µL of acetonitrile was added to quench the reaction. The mixture was shaken on a vortex mixer (IKA, MTS 2/4) for 10 min at 600 rpm/min and then centrifuged at 5594× g for 15 min (Thermo Multifuge×3R). The supernatant was diluted 1:1 into distilled water, and analyzed by LC-MS/MS.

P. falciparum 3D7 = experiment: Stage-specific parasite inhibition assay; assay type: cell-based, Plasmodium falciparum; settings: 40 nM
Protocol: To analyze the stage-specific parasite inhibition, highly synchronized parasites were cultured in 24-well plates with a starting parasitemia of 1% at a hematocrit of 2%. After 12 h of culture with the tested compounds at a concentration of 40 nM, parasites were washed three times to remove the compounds, and parasitemia was diluted 1:40 by new RBCs into CM for another 4 days of culture. DMSO was used as a blank control. Parasitemia was counted by flow cytometry. Flow cytometry was conducted as described previously. Briefly, the parasite-infected RBCs were fixed in 4% formaldehyde/0.015% glutaraldehyde for 30 min at room temperature and incubated with 500 μL of a SYBR green staining solution (Invitrogen) (1:5000) in 1× PBS (phosphate-buffered saline, pH 7.4, without calcium and magnesium). Cells were washed three times with 1× PBS prior to flow-cytometry analysis on a MoFloAstrios EQ instrument (BECKMAN COULTER). RBCs (5 × 10^5) were measured (excitation 488 nm; emission detection FL1 513 ± 26 nm), and a value of 5 on FL1 (SYBR Green intensity) was applied as a threshold to identify (gate) the infected RBCs (iRBCs). Acquired data were processed using the FlowJo software (v.10.0.5).

[4] = system: parasite histone H3 acetylation; experiment: Western blot of histone H3 acetylation in parasites; assay type: cell-based, Plasmodium falciparum; settings: 4 h treatment of asynchronous 3D7; quisinostat/JX21108 5 and 20 nM, SAHA 500 nM
Protocol: Then the parasite samples were harvested and treated with 0.15% saponin to remove the RBC proteins and sonicated in 1% NP40 lysis buffer. After centrifugation at 12,000× g for 15 min, the supernatant was resuspended in a routine SDS loading buffer. Parasite proteins were separated by 10% SDS-PAGE and transferred onto PVDF membranes (Millipore). […] A2348) followed by a secondary antibody conjugated with HRP (Jackson Immuno Research Laboratories). The chemiluminescent HRP substrate Immobilon Western Kit (Millipore) was used for signal detection.

[5] = female, BALB/c, mouse, plasma, ip

T1 sequence (Q92769 whole entry): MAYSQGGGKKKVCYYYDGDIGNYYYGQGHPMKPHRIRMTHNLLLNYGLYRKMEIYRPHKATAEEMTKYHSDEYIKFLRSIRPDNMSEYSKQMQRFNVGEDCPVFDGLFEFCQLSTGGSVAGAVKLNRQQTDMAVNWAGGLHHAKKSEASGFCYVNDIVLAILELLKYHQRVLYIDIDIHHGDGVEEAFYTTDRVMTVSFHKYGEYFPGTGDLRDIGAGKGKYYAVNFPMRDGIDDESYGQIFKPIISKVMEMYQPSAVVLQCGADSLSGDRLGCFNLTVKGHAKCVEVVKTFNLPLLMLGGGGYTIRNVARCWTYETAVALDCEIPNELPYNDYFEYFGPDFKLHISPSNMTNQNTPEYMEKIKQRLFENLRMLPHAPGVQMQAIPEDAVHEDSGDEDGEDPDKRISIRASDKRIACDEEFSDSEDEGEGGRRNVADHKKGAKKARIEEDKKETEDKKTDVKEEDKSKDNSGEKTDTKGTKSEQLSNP

Question: What does the source list for `Cl.Cn1cc(CN2CCC3(CCN(c4ncc(C(=O)NO)cn4)C3)C2)c2cc(C#N)ccc21` (stereo not drawn) [JX21108]?
Answer: EC50 [1]: 38.8 ± 17.8 nM; EC50 ([1]; Plasmodium falciparum, NF54, 48 h): 38.8 ± 17.8 nM; EC50 (3D7^HDAC1-TY1): 114 ± 26.5 nM; EC50 (P. falciparum GB4): 2.4 ± 0.6 nM; V/F [2]: 15.4 L/kg; AUC(0-inf) [2, 5]: 434 ng·h/mL; AUC(0-t) [2, 5]: 432 ng·h/mL; half-life [2, 5]: 55.6 min; CL/F ([2]; female, BALB/c, mouse, plasma, ip, read-out: CL/F (converted)): 192 mL/min/kg; Cmax ([2]; female, BALB/c, mouse, plasma, ip, read-out: Cmax): 511 ng/mL; Tmax ([2]; female, BALB/c, mouse, plasma, ip, read-out: Tmax): 15 min; EC50 (3D7^HDA1-glmS): 210 ± 25 nM; IC50 (hHDAC2): 4.6 nM; CL in liver microsomes [3]: 3.34 mL/min/kg; half-life at 1 µM ([3]; human liver microsomes, read-out: T1/2 in liver microsomes): 521 min; stage dependence of parasite killing (parasitemia at 4 dpi) (P. falciparum 3D7; 12-h treatment): treatment at the schizont stage was more active in parasite killing than that at the ring and trophozoite stages; asexual development of parasites to the next cycle (P. falciparum 3D7; 12-h treatment at ring, trophozoite and schizont stages): strongly block the asexual development of parasites to the next cycle; pan-acetylation levels of parasite histone H3 [4]: greatly increased the pan-acetylation levels of parasite histone H3
